Each structure is given as a SMILES string.

The conditions of series [1]: in vivo; cited from earlier work.
The subject of another series is YC-8 lymphoma. To be noted: wide range of doses; cited from earlier work.
A further series concerns ascitic L1210 leukaemia. Particulars: wide range of doses; cited from earlier work.
Series [2] is described as follows: Stability in solution in common solvents for parenteral administration. Format: physicochemical. To be noted: injectable liquid compositions.
The nature of series [3]: Solubility in water and sodium chloride solutions. The format is physicochemical. From the text: However, the presence of sodium chloride requires the use of long lyophilisation cycles due to the low glass transition temperature observed.

`NCCNc1ccc(NCCN)c2c1C(=O)c1ccncc1C2=O.O=C(O)/C=C\C(=O)O.O=C(O)/C=C\C(=O)O` [BBR 2778, 6,9-bis[(2-aminoethyl)amino]benzo[g]isoquinoline-5,10-dione dimaleate]: the cardiotoxicity result in series [1] is reported as “lower than that of other known drugs belonging to the same class”. Also, the “activity compared with mitoxantrone” value with YC-8 lymphoma and in the series with ascitic L1210 leukaemia was “more active than mitoxantrone” each time. Besides, the stability in solution result in series [2] is given as “problematic”. Also, the “solubility in sodium chloride solutions” value in series [3] (sodium chloride solutions 0.9 to 4%) was “progressively more soluble”. In series [3] (water), the solubility in water result was “low solubility”.

Source of the values: patent publication US9211262B2, “Injectable pharmaceutical compositions of an anthracenedione derivative with anti-tumoral activity” (CTI BioPharma Corp., priority 2002, dated 2015).
